A short description of data set [1]: UV-Vis absorption and fluorescence spectroscopy of the Oxazine library. It is filed as physicochemical. To be noted: for Extinction coefficient: Beer's Law plots; for Quantum yield: relative, references Oxazine 1, Oxazine 170, Rhodamine 101. In short, it runs like this:
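Absorbance measured at room temperature in 1-cm quartz cuvette, reference corrected; extinction coefficient from Beer's Law plots of absorbance vs concentration. Fluorescence spectra corrected for PMT response; relative quantum yields averaged over multiple measurements against Oxazine 1, Oxazine 170 and Rhodamine 101 references.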

The test system of data set [2] is murine brachial plexus and sciatic nerves. Kind of data set: Nerve-specificity screening using direct/topical administration. It is filed as in vivo, mouse. Particulars: for nerve specificity (N/M contrast vs control group) via direct administration: 125 μM, imaged 30 minutes after staining; for N/M and N/A ratios vs unstained control animals: direct administration. The method, then:
All reagents were purchased from Sigma Aldrich, Fisher Scientific, TCI, or Ark Pharm. Unless otherwise indicated, all commercially available starting materials were used directly without further purification. Analytical thin layer chromatography (TLC) was performed on Millipore ready-to-use plates with silica gel 60 (F254, 32-63 μm). Flash chromatography was performed on Sorbent Technologies silica gel for column chromatography or on a Biotage Isolera Flash System using SNAP Ultra cartridges. High-resolution mass spectra (HRMS) were measured on a ThermoElectron LTQ-Orbitrap high resolution mass spectrometer with a dedicated Accela HPLC system, or an Agilent 6244 time-of-flight LCMS with diode array detector VL+. LCMS and Purity Characterization Mass-to-charge ratio and purity of the Oxazine compounds were characterized on an Agilent 6244 time-of-flight tandem liquid chromatography mass spectroscopy (LCMS) with diode array detector VL+. Sample (10 μL) was injected into a C18 column (Poroshell 120, 4.6×50 mm, 2.7 micron), and eluted with a solvent system of A (H2O, 0.1% FA) and B (MeCN, 01.% FA) at 0.4 mL/min, from A/B=90/10 to 5/95 over 10 min, maintained at A/B=5/95 for additional 5 min. Ions were detected in positive ion mode by setting the capillary voltage at 4 kV and gas temperature at 350° C. Purity was calculated through area under the curve analysis of the absorbance at 254 nm. UV-Vis Absorption and Fluorescence Spectroscopy. UV-Vis spectra were collected with a Cary 50 UV-Vis spectrophotometer at room temperature, using a 1-cm quartz cuvette. Fluorescence spectra were collected on a Cary Eclipse fluorescence spectrophotometer (Agilent Technologies). All absorbance spectra were reference corrected. Extinction coefficient was calculated from Beer's Law plots of absorbance versus concentration. Fluorescence spectra were corrected for the wavelength dependent response of the R928 photomultiplier tube using a manufacturer generated correction file. Relative quantum yields are reported as the average of multiple measurements using multiple references, including Oxazine 1, Oxazine 170, and Rhodamine 101. Physicochemical Property Calculation. Physicochemical partition coefficients (Log D) values at pH 7.4, number of hydrogen bond donors and acceptors, polar surface area, and the number of rotatable bonds were calculated using Marvin and JChem calculator plugins (ChemAxon, Budapest, Hungary). Nerve-Specificity Screening using Direct/Topical Administration Each compound was screened for its tissue-specificity using a previously published direct/topical administration strategy in murine brachial plexus and sciatic nerves.^1 Each compound from the Oxazine library was formulated in the previously utilized co-solvent formulation (10% DMSO, 5% Kolliphor, 65% serum and 20% phosphate buffered saline) at 125 μM. 100 μL of the formulated Oxazine were incubated on the exposed brachial plexus or sciatic nerve for 5 minutes. The fluorophore containing solution was removed and the area was irrigated with saline 18 times to remove any unbound fluorophore. Co-registered fluorescence and color images were collected of each stained area 30 minutes after Oxazine direct/topical administration using a custom built macroscopic imaging system with 620/60 nm excitation and 700/75 nm bandpass emission filters. Custom written MatLab code was used to analyze the tissue specific fluorescence where regions of interest were selected on the nerve, muscle and adipose tissue using the white light images. These regions of interest were then analyzed on the co-registered matched fluorescence images permitting assessment of the nerve to muscle and nerve to adipose ratios in blinded manner. […]

Data set [3] shares this test system. Kind of data set: Nerve-specificity screening using systemic administration. It is filed as in vivo. To be noted: for nerve specificity / nerve contrast (N/M vs control group) following systemic administration: IV, 200 nmol, 4 hours prior to imaging; for N/M and N/A ratios vs unstained control animals: systemic administration.

The values that follow come from US11492359B2, “Near-infrared nerve-sparing fluorophores” (OREGON HEALTH & SCIENCE UNIVERSITY, priority 2018, dated 2022).

As to `CC[N+](CC)=c1ccc2nc3ccc(N(C)C)cc3oc-2c1` [LGW03-76, N-(7-(dimethylamino)-3H-phenoxazin-3-ylidene)-N-ethylethanaminium], in data set [1], the “Max Abs” value was found to be 654 nm, the “Max Em” value was 669 nm, the “Max Ex” value is 655 nm and the Extinction coefficient came to 66111 M⁻¹ cm⁻¹. Further, in data set [1], the Quantum yield was 7.99%. Moreover, in data set [2], the “nerve specificity (N/M contrast vs control group) via direct administration” value is reported as “high nerve specificity”; the “N/M and N/A ratios vs unstained control animals” value (“N/M and N/A ratios” below) is “significantly higher N/M and N/A ratios than unstained control animals”. Moreover, in data set [3], the “nerve specificity / nerve contrast (N/M vs control group) following systemic administration” value was “high nerve specificity”; the “N/M and N/A ratios” value was “significantly higher N/M and N/A ratios than unstained control animals”.
For the compound `CCCNc1cc2oc3cc(=[N+](CC)CC)ccc-3nc2cc1C` [LGW04-31, N-ethyl-N-(8-methyl-7-(propylamino)-3H-phenoxazin-3-ylidene)ethanaminium], in data set [1], the “Max Abs” value is reported as 641 nm, the “Max Em” value was 661 nm, the “Max Ex” value stood at 640 nm and the Extinction coefficient came to 59586 M⁻¹ cm⁻¹. This compound yielded a Quantum yield in data set [1] of 5.01%. Moreover, in data set [2], the “nerve specificity (N/M contrast vs control group) via direct administration” value is on record as “high nerve specificity”; the “N/M and N/A ratios” value was “significantly higher N/M and N/A ratios than unstained control animals”. Moreover, in data set [3], the “nerve specificity / nerve contrast (N/M vs control group) following systemic administration” value was “high nerve specificity”; the “N/M and N/A ratios” value is “significantly higher N/M and N/A ratios than unstained control animals”.
For `CCN1CCc2cc3nc4ccc(=[N+](CC)CC)cc-4oc3cc21` [LGW05-84, N-ethyl-N-(1-ethyl-2,3-dihydropyrrolo[3,2-b]phenoxazin-8(1H)-ylidene)ethanaminium], in data set [1], the “Max Abs” value amounted to 643 nm, the “Max Em” value was found to be 675 nm, the “Max Ex” value turned out to be 650 nm and the Extinction coefficient was determined as 46048 M⁻¹ cm⁻¹. This compound also gave a Quantum yield in data set [1] of 4.85%. The “nerve specificity (N/M contrast vs control group) via direct administration” value in data set [2] was “negative nerve specificity”. The “nerve specificity / nerve contrast (N/M vs control group) following systemic administration” value in data set [3] is “positive”.
With `CC/N=c1/cc2oc3cc4c(cc3nc-2cc1C)CCN4` [LGW05-85, (Z)—N-(7-methyl-2,3-dihydropyrrolo[3,2-b]phenoxazin-8(1H)-ylidene)ethanaminium], in data set [1], the “Max Abs” value was 613 nm, the “Max Em” value is recorded as 640 nm, the “Max Ex” value is reported as 615 nm and the Extinction coefficient was 45382 M⁻¹ cm⁻¹. The Quantum yield in data set [1] is 41.05%. Besides, the “nerve specificity (N/M contrast vs control group) via direct administration” value in data set [2] is “positive nerve specificity”. In addition, the “nerve specificity / nerve contrast (N/M vs control group) following systemic administration” value in data set [3] is “negative for nerve contrast”.
As for `CC/N=c1/cc2oc3cc(NCC)c(F)cc3nc-2cc1F` [LGW05-91, (Z)—N-(7-(ethylamino)-2,8-difluoro-3H-phenoxazin-3-ylidene)ethanaminium], in data set [1], the “Max Abs” value amounted to 606 nm, the “Max Em” value was 626 nm, the “Max Ex” value came to 610 nm and the Extinction coefficient was determined as 16763 M⁻¹ cm⁻¹. This compound yielded a Quantum yield in data set [1] of 33.45%. Further, the “nerve specificity (N/M contrast vs control group) via direct administration” value in data set [2] is given as “positive nerve specificity”. The “nerve specificity / nerve contrast (N/M vs control group) following systemic administration” value in data set [3] is reported as “negative for nerve contrast”.
For the compound `CC/N=c1/cc2oc3cc(N)c(C)cc3nc-2cc1C` [LGW06-10, (Z)—N-(7-amino-2,8-dimethyl-3H-phenoxazin-3-ylidene)ethanaminium], in data set [1], the “Max Abs” value is reported as 602 nm, the “Max Em” value is on record as 621 nm, the “Max Ex” value was found to be 605 nm and the Extinction coefficient stood at 55807 M⁻¹ cm⁻¹. The compound further yielded a Quantum yield in data set [1] of 26.54%. The “nerve specificity (N/M contrast vs control group) via direct administration” value in data set [2] is on record as “positive nerve specificity”. Also, the “nerve specificity / nerve contrast (N/M vs control group) following systemic administration” value in data set [3] is “negative for nerve contrast”.
On to `CC[N+](CC)=c1ccc2nc3cc(C)c(N)cc3oc-2c1` [LGW06-11, N-(7-amino-8-methyl-3H-phenoxazin-3-ylidene)-N-ethylethanaminium], for which, in data set [1], the “Max Abs” value turned out to be 628 nm, the “Max Em” value stood at 650 nm, the “Max Ex” value is listed as 625 nm and the Extinction coefficient amounted to 31843 M⁻¹ cm⁻¹. Moreover, the Quantum yield in data set [1] worked out at 2.52%. Further, the “nerve specificity (N/M contrast vs control group) via direct administration” value in data set [2] is “positive nerve specificity”. The “nerve specificity / nerve contrast (N/M vs control group) following systemic administration” value in data set [3] is “negative for nerve contrast”.
As to `CC/N=c1/cc2oc3cc(N)ccc3nc-2cc1C` [LGW06-97, (Z)—N-(7-amino-2-methyl-3H-phenoxazin-3-ylidene)ethanaminium], in data set [1], the “Max Abs” value is recorded as 599 nm, the “Max Em” value was determined as 617 nm, the “Max Ex” value turned out to be 600 nm and the Extinction coefficient amounted to 38616 M⁻¹ cm⁻¹. Further, the Quantum yield in data set [1] worked out at 25.39%. In data set [2], the “nerve specificity (N/M contrast vs control group) via direct administration” value is on record as “positive nerve specificity”. For the same compound, the “nerve specificity / nerve contrast (N/M vs control group) following systemic administration” value in data set [3] is listed as “negative for nerve contrast”.
As to `c1c2c(cc3c1N=c1cc4c(cc1O3)=NCC4)NCC2` [LGW07-55, 2,3,7,8-tetrahydro-1H-dipyrrolo[3,2-b:2′,3′-i]phenoxazin-9-ium], in data set [1], the “Max Abs” value was 619 nm, the “Max Em” value came out at 634 nm, the “Max Ex” value was 620 nm and the Extinction coefficient amounted to 20163 M⁻¹ cm⁻¹. Moreover, the Quantum yield in data set [1] is reported as 28.25%. The “nerve specificity (N/M contrast vs control group) via direct administration” value in data set [2] is listed as “positive nerve specificity”. Besides, the “nerve specificity / nerve contrast (N/M vs control group) following systemic administration” value in data set [3] is “negative for nerve contrast”.
